Our source for the TGI and GI50 values is PubChem BioAssay (NCI).

Test systems include A498 renal; A549 NSCLC; HCT-116 colon; K-562 leukemia; NCI-H226 lung; OVCAR-5 ovarian; RPMI-8226 leukemia; SF-539 CNS; UACC-257 melanoma.
Experiment in all cases: NCI-60 cell line screen, 48 h

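Compound exposure: 48 hours, 5 concentrations, 96-well plates. GI50: concentration for 50% inhibition of growth. The concentration for full growth arrest is given as TGI.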

In the case of `COc1cc(C2C(C(=O)Nc3ccccc3)=C(C)NC(C)=C2C(=O)Nc2ccccc2)ccc1O`, the TGI with A498 renal, in the assay with A549 NSCLC, with HCT-116 colon, in the assay on K-562 leukemia, in the assay on NCI-H226 lung and in the assay with OVCAR-5 ovarian was > 100 µM in each case. In addition, the results for the TGI with RPMI-8226 leukemia, with SF-539 CNS and with UACC-257 melanoma were > 100 µM, 52.9 µM and > 100 µM, respectively.

As for `O=c1[nH]c(=S)[nH]c(O)c1/C=C1\C=CC=N1`, the TGI in the assay on A498 renal was 84.3 µM; in the assay on A549 NSCLC it was > 100 µM; in the assay on HCT-116 colon, 18.7 µM; with K-562 leukemia, > 100 µM; in the assay on NCI-H226 lung, 33.4 µM; in the assay with OVCAR-5 ovarian, 47 µM. The TGI came to 23 µM in the assay on RPMI-8226 leukemia, 40.5 µM in the assay on SF-539 CNS and 72.4 µM in the assay with UACC-257 melanoma.

On to `O=[N+]([O-])c1ccccc1C1N2CCCCC2[C@@H]2c3[nH]c4ccccc4c3CCN12` (some centres not stated), for which the TGI in the assay with A498 renal was found to be 25.2 µM; with A549 NSCLC, 35.8 µM; in the assay on K-562 leukemia, 14 µM; with OVCAR-5 ovarian, 40 µM; with RPMI-8226 leukemia, 61.3 µM; in the assay on SF-539 CNS, 25.1 µM. Moreover, the TGI in the assay on UACC-257 melanoma was 26.7 µM.

As to `Fc1ccccc1C1CC(C(c2ccccc2)c2ccccc2)=Nc2ccccc2S1` (configuration not stated), the TGI is 20 µM in the assay with A498 renal; 46.4 µM in the assay on A549 NSCLC; 10.6 µM in the assay with K-562 leukemia; 32.6 µM in the assay on NCI-H226 lung; 33.6 µM with OVCAR-5 ovarian; 25 µM in the assay on RPMI-8226 leukemia. The TGI amounted to 50.4 µM in the assay with SF-539 CNS and 30.6 µM in the assay with UACC-257 melanoma.

As for `O=[N+]([O-])c1ccc(Cl)c(C2SCc3nc4ccccc4n32)c1` (configuration not stated), the TGI in the assay on A498 renal was > 100 µM; in the assay with A549 NSCLC, > 100 µM; in the assay with HCT-116 colon it was > 100 µM; with K-562 leukemia, > 100 µM; with NCI-H226 lung, 69.1 µM; in the assay on OVCAR-5 ovarian, > 100 µM. The TGI in the assay with RPMI-8226 leukemia was > 100 µM; in the assay with SF-539 CNS, > 100 µM; in the assay on UACC-257 melanoma it was 93 µM.

As for `COc1ccc2c(c1)CC[C@@H]1C2CC[C@]2(C)C(=O)NC(=O)CC12` (some centres not stated), the TGI in the assay with A498 renal, with A549 NSCLC, in the assay with HCT-116 colon, in the assay on K-562 leukemia, with NCI-H226 lung and with OVCAR-5 ovarian was > 100 µM throughout. The TGI with RPMI-8226 leukemia, in the assay with SF-539 CNS and in the assay with UACC-257 melanoma was > 100 µM each time.

Turning to `CCc1cccc(C)c1NC(=O)NS(=O)(=O)c1ccc(C)cc1`, the TGI with A498 renal, with A549 NSCLC, in the assay with HCT-116 colon, in the assay with K-562 leukemia, in the assay with OVCAR-5 ovarian and in the assay with RPMI-8226 leukemia was > 100 µM each time. Besides, the TGI with SF-539 CNS and with UACC-257 melanoma was > 100 µM each time.

Regarding `Cc1cc(C)nc(NS(=O)(=O)c2ccc(NC(=O)c3cccc4cc5ccccc5nc34)cc2)n1`, the TGI with A498 renal was 50.5 µM; in the assay on A549 NSCLC, > 100 µM; with HCT-116 colon, 32.1 µM; with K-562 leukemia, > 100 µM; with NCI-H226 lung it was 46.5 µM; in the assay with OVCAR-5 ovarian, > 100 µM. Further, the TGI with RPMI-8226 leukemia was 85.7 µM; in the assay with SF-539 CNS it was 34 µM; in the assay with UACC-257 melanoma it was > 100 µM.

Turning to `Cc1cc(C)c(C(=O)OC(c2ccccc2)C(c2ccccc2)N2CCOCC2)c(C)c1` (configuration not stated), the TGI in the assay with A498 renal was > 100 µM; in the assay on A549 NSCLC, > 100 µM; in the assay with HCT-116 colon, > 100 µM; in the assay with K-562 leukemia, > 100 µM; in the assay with NCI-H226 lung, > 100 µM; in the assay on RPMI-8226 leukemia, 85.3 µM. For the same compound, the TGI with SF-539 CNS and in the assay with UACC-257 melanoma was > 100 µM each time.

Turning to `O=Nc1c(O)ccc2ccccc12`, the GI50 with A498 renal is 16.7 µM; with A549 NSCLC it was 4.9 µM; with HCT-116 colon, 2.25 µM; in the assay on K-562 leukemia, 3.49 µM; in the assay on NCI-H226 lung it was 15.6 µM; with OVCAR-5 ovarian it was 1.83 µM. Also, the GI50 with RPMI-8226 leukemia was 2.64 µM; in the assay with SF-539 CNS it was 2.59 µM; in the assay with UACC-257 melanoma, 1.64 µM. In addition, the TGI in the assay with A498 renal amounted to 31.4 µM; with A549 NSCLC, 17.5 µM; with HCT-116 colon, 5.87 µM; with K-562 leukemia it was 16.8 µM; with NCI-H226 lung, 33.4 µM; in the assay with OVCAR-5 ovarian it was 3.44 µM. Also, the values for the TGI in the assay on RPMI-8226 leukemia, in the assay on SF-539 CNS and in the assay on UACC-257 melanoma were 7.21 µM, 6.29 µM and 3.2 µM, respectively.

Regarding `CN(O)C(=O)Cc1ccccc1`, the TGI in the assay on A549 NSCLC, in the assay with HCT-116 colon, in the assay with K-562 leukemia, in the assay with NCI-H226 lung, with OVCAR-5 ovarian and with RPMI-8226 leukemia was > 100 µM throughout. The TGI in the assay on SF-539 CNS and with UACC-257 melanoma was > 100 µM in each case.

On to `C[Si](C)(C)/C=C/CN1C(=O)CCC1O` (configuration not stated), for which the TGI in the assay on A498 renal, in the assay on A549 NSCLC, with HCT-116 colon, with K-562 leukemia, with NCI-H226 lung and with OVCAR-5 ovarian was > 100 µM throughout. Further, the TGI in the assay with RPMI-8226 leukemia, in the assay on SF-539 CNS and in the assay on UACC-257 melanoma was > 100 µM throughout.

With `COc1ccc(O)c2c1C(=O)CCCC2=O`, the TGI in the assay with A498 renal, with A549 NSCLC, in the assay on HCT-116 colon, with K-562 leukemia, with OVCAR-5 ovarian and with RPMI-8226 leukemia was > 100 µM in each case. For the same compound, the TGI with SF-539 CNS and in the assay on UACC-257 melanoma was > 100 µM in each case.

As to `CCOC(=O)C(C[Si](C)(C)C)P(=O)(OCC)OCC` (configuration not stated), the TGI in the assay with A549 NSCLC, in the assay on HCT-116 colon, in the assay with K-562 leukemia, in the assay on NCI-H226 lung, in the assay on OVCAR-5 ovarian and with RPMI-8226 leukemia was > 100 µM throughout. For the same compound, the TGI in the assay with SF-539 CNS and with UACC-257 melanoma was > 100 µM throughout.
